From US8609332B2, “Assay” (Queen's University of Belfast, priority 2006, dated 2013)

Assays:
[1] = at 50 μM; cited from earlier work
[2] = system: ser473 phosphorylated Akt; experiment: AKT phosphorylation immunoblot; type: cell-based, rat
Method: FIG. 5C Immunodetection and LY290042-inhibition of phosphorylated Akt in parental R37, R37-CMV, R37-OPN and R37-RAN cells. 20 μg cell lysates were loaded onto a SDS 10% (W(W) polyacrylamide gel as follows: lane 1 R37, lane 2 R37-pBk-CMV; lane 3 R37-RAN, lane 4 R37-OPN; lane 5 R37-OPN treated with 50 μm LY290042 for 18 hr (R37-OPN/LY); and lane 6 R37-RAN treated with 50 μm LY290042 for 18 hr (R37-RAN/LY). Proteins were detected in immunoblots using specific antibodies to phosphoserine 473 AkT. Bands were quantified using densitometric analysis and quantified with respect to those of β-actin. The results were a representative sample of three experiments. The average fold increase for 3 different experiments for phosphorylated AkT on ser473 is: lane 1=1, lane 2=2.2±0.4, lane 3=22.5±0.7, lane 4=21.1±0.5, lane 5=0±0 and lane 6=0±0.
The R37, R37-CMV, R37-RAN and R37-OPN cells were harvested at 80% confluence from 7 cm dishes. The cell were lysed in 300 μl of 2× Loading buffer (20% glycerol (v/v), 4% SDS (w/v), 10% 2-mercaptoethanol (v/v), 126 mM Tris, pH 6.8 and coloured with bromophenol blue). The lysates were sonicated, boiled at 100° C. for 5 minutes and then centrifuged at 15000 rpm for 10 minutes. Proteins were resolved by 7.5% SDS-PAGE and immunoblofted for ser473 phosphorylated Akt.as previously (43).

O=c1cc(N2CCOCC2)oc2c(-c3ccccc3)cccc12 [LY294002, 2-4(4-morpholinyl)-8-phenyl-4H-1-benzopyran-4-one]
induction of apoptosis [1]: without inducing apoptosis | phosphorylated AkT on ser473, average fold increase (R37 = 1) ([2]; R37-OPN cells treated with 50 μm for 18 hr (lane 5)): 0±0 fold | phosphorylated AkT on ser473, average fold increase (R37 = 1) ([2]; R37-RAN cells treated with 50 μm for 18 hr (lane 6)): 0±0 fold
